Reference: US8771973B2, “Methods for treating bleeding disorders using sulfated polysaccharides” (Baxter Healthcare S.A., priority 2004, dated 2014)

Assays:
[1] = tested on: Factor VII-deficient plasma; assay: dPT assay, Factor VII-deficient plasma in absence of exogenous TFPI; assay type: biochemical, human; conditions: FVII-deficient plasma, no NASP + 0.1 nM FVIIa 173 seconds
Procedure: (§1) The dPT assay used was a modified standard clinical PT assay (Nordfang et al. (1991) Thromb Haemost 66:464-467; Welsch et al. (1991) Thrombosis Research 64: 213-222). SIMPLASTIN EXCEL thromboplastin reagent (Organon Teknika) was reconstituted with the manufacturer's diluent and further diluted 1:100 in 0.9% saline. The thromboplastin reagent, 25 mM CaCl2, and plasma samples were pre-warmed to 37° C. before initiating the assay. 100 μl of thawed plasma was aliquoted into microcentrifuge tubes. […] 100 μl of the diluted thromboplastin reagent and 100 μl of 25 mM CaCl2 were added to fibrin cups (Fisher) prewarmed to 37° C. 100 μl of plasma (normal or hemophilic) containing the test agent or saline control was added to the fibrin cups containing the thromboplastin reagent and CaCl2 to initiate clotting. The time for plasma clotting was measured with a BBL FIBROSYSTEM fibrometer.
Regulation of clotting in Factor VII-deficient plasma was also evaluated in dPT assays. […] Addition of FVIIa to approximately 0.1 nM restored the clotting time to about 150 seconds (data not shown). Such a variation in clotting time shown in the dPT assay mimics some forms of human factor VII-deficiency. Titration of fucoidan and PPS into FVII-deficient plasma accelerated clotting times.

[2] = tested on: Hem-A plasma containing 1.25% FACT plasma; assay: aPTT assay, NASPs in 1.25% FACT diluted in Hem-A plasma; assay type: biochemical, human; conditions: for concentration producing approximately 50% prolongation in clotting time, fold higher than for heparin: APTT, Hem-A plasma
Procedure: Activated Partial Thromboplastin Time (aPTT) Assay The aPTT assay was performed as described previously with modifications (PDR Staff Physicians' Desk Reference. 2004, Anderson Lo, Barrowcliffe, T. W., Holmer, E., Johnson, E. A., Sims, G. E. C. Thromb. Res. 1976; 9:575-580). 25 mM CaCl2 and fibrin cups (Fisher) were pre-warmed to 37° C. 0.1 ml of thawed human plasma (normal or hemophilic) was added to warmed test tubes. 5 μl of saline (e.g. Sigma) or 5 μl of test agent (e.g., NASP) dissolved in saline was incubated with 95 μl of plasma for 30 minutes at room temperature. APTT reagent (e.g. Organon Teknika) was reconstituted in 3 ml distilled water and 0.1 ml of the reconstituted solution containing the APTT reagent was added to each test tube. 0.2 ml of plasma containing the test agent or saline control and aPTT reagent were transferred from test tubes to pre-warmed fibrin cups and incubated for 2-3 minutes. 0.1 ml of pre-warmed 25 mM CaCl2 was added to initiate clotting, and the time for plasma clotting was measured with a BBL FIBROSYSTEM fibrometer.
The effect of NASPs on the clotting time of plasma was determined as follows: 5 μl of a NASP was added to 95 μl of 1.25% FACT diluted in human Hem-A plasma and incubated at room temperature for 30 minutes. aPTT assays were performed to determine plasma clotting time as described in Example 1.

[3] = molecular target: T1, TFPI (Homo sapiens, UniProt P10646); assay: dPT assay, inhibition of TFPI activity in Hem-B plasma, TFPI preincubated with NASP; assay type: biochemical; conditions: Hem-B + TFPI, plasma alone 46, + TFPI 101 seconds
T1 construct: purchased American Diagnostica (Stamford, Conn.)
T1 sequence (P10646 29-304): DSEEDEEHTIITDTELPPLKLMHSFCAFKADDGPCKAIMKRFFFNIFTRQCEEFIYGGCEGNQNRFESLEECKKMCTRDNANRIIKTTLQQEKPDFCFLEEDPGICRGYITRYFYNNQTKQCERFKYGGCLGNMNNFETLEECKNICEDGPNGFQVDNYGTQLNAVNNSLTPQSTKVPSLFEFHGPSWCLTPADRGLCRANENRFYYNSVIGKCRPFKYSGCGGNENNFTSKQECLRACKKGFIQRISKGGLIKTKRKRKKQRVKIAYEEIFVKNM
Procedure: as §1
(§2) Inhibition of TFPI activity by NASPs was assessed in dPT clotting assays with normal or hemophilic plasma and added recombinant TFPI. Diluted recombinant TFPI was preincubated with NASPs for 5 minutes at room temperature before plasma was added. After addition of plasma, the mixture was incubated for an additional 25 minutes followed by dPT initiation.
The acceleration of plasma clotting by the NASPs in the presence of TFPI was also tested in Hem-B and normal plasma.

[4] = tested on: Hem-A plasma; assay: dPT assay, Hem-A plasma in absence of exogenous TFPI; assay type: biochemical, human; conditions: Hem-A, no exogenous TFPI, no NASP 69 seconds
Procedure: as §1
The ability of NASPs to accelerate clotting of factor-deficient plasma in the absence of TFPI supplementation was also tested in dPT assays. A procoagulant response, if observed, may be related to neutralization of endogenous TFPI activity, which is present in human plasma at approximately 100 ng/ml (Nordfang et al., supra), largely associated with lipoprotein or platelets (Broze et al. (1992) Semin. Hematol. 29:159-169; Broze et al. (2003) J. Thromb. Haemost. 1:1671-1675).
The ability of NASPs to accelerate clotting of Hem-A plasma in the absence of exogenous TFPI was tested. Fucoidan or PPS were titrated into Hem A plasma and dPT assays were performed. Additionally, the dose-response to factor VIIa was analyzed as a positive control for amplifying extrinsic pathway activation.

[5] = molecular target: T1, TFPI; assay: dPT assay, inhibition of TFPI activity in Hem-A plasma, TFPI preincubated with NASP; assay type: biochemical; conditions: Hem-A + TFPI, preincubation, plasma alone 44, + TFPI 151 seconds
Procedure: as §1, §2

[6] = molecular target: T1, TFPI; assay: dPT assay, inhibition of TFPI activity in Hem-A plasma without preincubation; assay type: biochemical; conditions: no preincubation; for clotting time, dPT: Hem-A + TFPI, HemA + TFPI 183, alone 45 seconds
Procedure: as §1
Experiments were repeated without a preincubation of the sulfated polysaccharides with TFPI prior to exposure to plasma. To extend the stringency of the test for NASP inhibition of TFPI activity, TFPI was added to the plasma before the NASP was added.

Pentosan Polysulphate Sodium [PPS]
clotting time, dPT ([1]; 0.8 nM): 198 s
clotting time, dPT ([1]; 4 nM): 181 s
clotting time, dPT ([1]; 20 nM): 159 s
clotting time, dPT ([1]; 100 nM): 142 s
clotting time, dPT ([1]; 500 nM): 113 s
clotting time, aPTT ([2]; 0.8 nM): 70 s
clotting time, aPTT ([2]; 4 nM): 71 s
clotting time, aPTT ([2]; 20 nM): 72 s
clotting time, aPTT ([2]; 100 nM): 80 s
clotting time, aPTT ([2]; 500 nM): 113 s
concentration producing approximately 50% prolongation in clotting time, fold higher than for heparin [2]: 100 fold
clotting time, dPT ([3]; 0.16 nM): 106 s
clotting time, dPT ([3]; 0.8 nM): 90 s
clotting time, dPT ([3]; 4 nM): 82 s
clotting time, dPT ([3]; 20 nM): 65 s
clotting time, dPT ([3]; 100 nM): 52 s
clotting time, dPT ([3]; 500 nM): 56 s
clotting time, dPT ([4]; 0.16 nM): 69 s
clotting time, dPT ([4]; 0.8 nM): 68 s
clotting time, dPT ([4]; 4 nM): 66 s
clotting time, dPT ([4]; 20 nM): 62 s
clotting time, dPT ([4]; 100 nM): 60 s
clotting time, dPT ([5]; 0.16 nM): 158 s
clotting time, dPT ([5]; 0.8 nM): 111 s
clotting time, dPT ([5]; 4 nM): 91 s
clotting time, dPT ([5]; 20 nM): 55 s
clotting time, dPT ([5]; 100 nM): 57 s
clotting time, dPT ([5]; 500 nM): 74 s
clotting time, dPT ([6]; 0.8 nM): 192 s
clotting time, dPT ([6]; 4 nM): 156 s
clotting time, dPT ([6]; 20 nM): 81 s
clotting time, dPT ([6]; 100 nM): 76 s
clotting time, dPT ([6]; 500 nM): 73 s

Fucoidan
clotting time, dPT ([1]; 0.8 nM): 168 s
clotting time, dPT ([1]; 4 nM): 147 s
clotting time, dPT ([1]; 20 nM): 120 s
clotting time, dPT ([1]; 100 nM): 74 s
clotting time, dPT ([1]; 500 nM): 111 s
clotting time, aPTT ([2]; 0.16 nM): 71 s
clotting time, aPTT ([2]; 0.8 nM): 70 s
clotting time, aPTT ([2]; 4 nM): 71 s
clotting time, aPTT ([2]; 20 nM): 75 s
clotting time, aPTT ([2]; 100 nM): 119 s
concentration producing approximately 50% prolongation in clotting time, fold higher than for heparin [2]: 10 fold
clotting time, dPT ([3]; 0.16 nM): 108 s
clotting time, dPT ([3]; 0.8 nM): 95 s
clotting time, dPT ([3]; 4 nM): 80 s
clotting time, dPT ([3]; 20 nM): 54 s
clotting time, dPT ([3]; 100 nM): 50 s
clotting time, dPT ([3]; 500 nM): 60 s
clotting time, dPT ([4]; 0.16 nM): 70 s
clotting time, dPT ([4]; 0.8 nM): 68 s
clotting time, dPT ([4]; 4 nM): 63 s
clotting time, dPT ([4]; 20 nM): ~55 s
clotting time, dPT ([4]; 100 nM): 56 s
clotting time, dPT ([5]; 0.16 nM): 130 s
clotting time, dPT ([5]; 0.8 nM): 108 s
clotting time, dPT ([5]; 4 nM): 72 s
clotting time, dPT ([5]; 20 nM): 54 s
clotting time, dPT ([5]; 100 nM): 46 s
clotting time, dPT ([5]; 500 nM): 75 s
clotting time, dPT ([6]; 0.8 nM): 210 s
clotting time, dPT ([6]; 4 nM): 78 s
clotting time, dPT ([6]; 20 nM): 59 s
clotting time, dPT ([6]; 100 nM): 54 s
clotting time, dPT ([6]; 500 nM): 90 s
concentration window for significant clotting acceleration ([6]; Hem A plasma + TFPI): greater than 100 fold
